Experimental data as given in paper PMC11203799, “Determining the Affinity and Kinetics of Small Molecule Inhibitors of Galectin-1 Using Surface Plasmon Resonance” (International Journal of Molecular Sciences, 2024).
pKd: −log10 of the molar value.

Columns and labels:
human galectin-1 [1] = biological target: T1, human galectin-1 (Homo sapiens, UniProt P09382); assay: SPR binding assay, human galectin-1
T1 construct: human galectin-1 (residues M1-D135); His-tag; made in house; host or cells: E. coli BL21
T1 sequence (P09382 whole entry, the tested form may be a part): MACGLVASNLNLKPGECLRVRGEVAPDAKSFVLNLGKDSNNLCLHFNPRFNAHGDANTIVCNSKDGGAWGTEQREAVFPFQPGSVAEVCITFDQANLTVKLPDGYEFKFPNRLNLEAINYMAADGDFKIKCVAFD
Protocol: (§1) For SPR studies, His-tagged proteins were expressed in E. coli strain BL21 (human galectin-1 (residues M1-D135) and mouse galectin-1 (residues M1-E135)) and purified as previously described. SDS-PAGE and mass spectrometry were used to confirm protein purity with all proteins stored at −80 °C until use. Human and mouse proteins for FP were produced as previously described.
(§2) The SPR method previously described for galectin-3 proteins was used here for galectin-1 [10]. Briefly, CM3 sensor chip surfaces (Cytiva, Marlborough, MA, USA) were pre-primed and equilibrated in immobilization buffer (10 mM HEPES, 150 mM NaCl (pH 7.4)) using an Amine Coupling Kit (Cytiva, Marlborough, MA, USA) prior to the immobilization of protein (injected at 10 µg/mL in PBS at pH 6.0). […] Chips surfaces were blocked with ethanolamine HCl (pH 8.5) for 420 s upon reaching the immobilization required. Then, EDC/NHS and ethanolamine were used to treat blank surfaces that were protein-free. Running buffer (RB) was used to dilute compounds (10 mM HEPES, 150 mM NaCl, 1 mM DTT, 0.05% Tween 20, 5% DMSO (pH 7.4)), pre-filtered, degassed, and then injected for 1 min at a flow rate of 30 μL/min. […] Following each cycle, the chip surface was auto-regenerated and aided by fast compound off-rates, and a further wash set was completed in RB. […]

human galectin-1 [2] = biological target: T1, human galectin-1; assay: Fluorescence polarization (FP) binding assay, galectin-1; conditions: human vs mouse galectin-1
Protocol: as §1

mouse galectin-1 = biological target: T2, mouse galectin-1 (Mus musculus, UniProt P16045); assay: SPR binding assay, mouse galectin-1
T2 construct: mouse galectin-1 (residues M1-E135); His-tag; made in house; host or cells: E. coli BL21
T2 sequence (P16045 whole entry, the tested form may be a part): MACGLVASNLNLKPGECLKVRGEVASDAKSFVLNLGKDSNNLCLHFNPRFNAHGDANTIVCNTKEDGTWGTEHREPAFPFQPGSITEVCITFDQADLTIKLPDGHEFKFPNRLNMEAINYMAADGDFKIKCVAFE
Protocol: as §1, §2

SMILES: OC[C@H]1O[C@H](Sc2cc(Cl)c(F)c(Cl)c2)[C@H](O)[C@@H](n2cc(-c3nccs3)nn2)[C@H]1O [Compound 4, GB1490]
- Fold KD Differences SPR Human vs. Mouse Gal-1 (human galectin-1 [1]; SPR assay, human vs mouse galectin-1): 0.6 fold
- Fold KD Differences Human Gal-1 FP vs. SPR (human galectin-1 [1]; human galectin-1, FP vs SPR assay format): 1.8 fold
- Fold KD Differences FP Human vs. Mouse Gal-1 (human galectin-1 [2]): 0.6 fold
- Fold KD Differences Mouse Gal-1 FP vs. SPR (mouse galectin-1; FP vs SPR assay format): 1.6 fold

SMILES: OC[C@H]1O[C@@H](S[C@@H]2O[C@H](CO)[C@H](O)[C@H](n3cc(-c4cccc(F)c4)nn3)[C@H]2O)[C@H](O)[C@@H](n2cc(-c3cccc(F)c3)nn2)[C@H]1O [Compound 1, GB0139]
- pKd (mouse galectin-1; koff/kon, 1:1 Langmuir model, 25 °C, read-out: kinetic KD in SPR): 6.88
